Laboratory results reported in paper PMC4465063 (Mucosal immunology, 2014).

Legend:
K. pneumoniae = assay: In vivo neutrophil microbial killing assay; parameters: species or system Klebsiella pneumoniae strain 43816; conditions: thbs1^−/− mice; 10 µg/mouse i.p. 30 min prior to K. pneumoniae i.p.
purified NE = conditions: purified enzyme, in vitro; cited from earlier work
purified cathepsin G = conditions: purified enzyme, in vitro; cited from earlier work
plasmin = conditions: cited from earlier work
cathepsin G = conditions: cited from earlier work
neutrophils = conditions: in vitro; cited from earlier work
neutrophil elastase (NE) = conditions: cited from earlier work

Substance: rTSP-1: recombinant TSP-1
- bacterial killing function of thbs1^−/− neutrophils (K. pneumoniae): eliminated the enhanced bacterial killing function of thbs1^−/− neutrophils near to the level of WT neutrophils

Substance: Ac-DNCPYVPNA-NH2 [DA-9]
- inhibition of purified NE (purified NE): without reactive-site sequence similarity or known inhibitory activity
- inhibition of purified cathepsin G (purified cathepsin G): without reactive-site sequence similarity or known inhibitory activity

Substance: Ac-DNCQYVYNV-NH2 [DV-9]
- inhibition of purified NE (purified NE): inhibitory activity to both purified cathepsin G and NE
- inhibition of purified cathepsin G (purified cathepsin G): inhibitory activity to both purified cathepsin G and NE

Substance: Ac-DNCPFHYNP-NH2 [DP-9]
- inhibition of purified cathepsin G (purified cathepsin G): ability to inhibit activity of purified cathepsin G in vitro

Substance: TSP-1: matricellular protein that exists as a trimer of identical ~150–180 kDa subunits tethered together by disulfide bonds
- inhibition of plasmin (plasmin; in vitro, cleavage of fibrinogen): competitive inhibitor
- predicted stoichiometry with plasmin (plasmin; stoichiometric predictions): one mole of TSP-1 interacting with one mole of plasmin
- reversible inhibition of CG (cathepsin G; in the absence of calcium): enhanced
- stoichiometry: mol of cathepsin G bound per 1 mol of TSP-1 trimer (cathepsin G; in the presence of calcium): 2.9 ± 0.4 mol
- inhibition of purified cathepsin G (cathepsin G; purified enzyme, in vitro): binds and competitively inhibits
- Kd (cathepsin G; read-out: site binding constant, TSP-1 trimer, cathepsin G, in the presence of calcium): 7 ± 3.5 nM
- neutrophil motility and chemotaxis (neutrophils): can bind and induce the motility and chemotaxis of neutrophils in vitro
- reversible inhibition of NE (neutrophil elastase (NE); in the absence of calcium): enhanced
- stoichiometry: mol of NE bound per 1 mol of TSP-1 trimer (neutrophil elastase (NE); in the presence of calcium): 2.7 ± 0.3 mol
- inhibition of purified NE (neutrophil elastase (NE); purified enzyme, in vitro): binds and competitively inhibits
- Kd (neutrophil elastase (NE); read-out: site binding constant, TSP-1 trimer, NE, in the presence of calcium): 57 ± 13 nM
